In publication PMC9115111, “Metalloprotease Gp63-Targeting Novel Glycoside Exhibits Potential Antileishmanial Activity” (Frontiers in Cellular and Infection Microbiology, 2022):

Tests used:
[1] = test system: L. donovani promastigotes; test: DCFDA estimation of reactive oxygen species in promastigotes; type: cell-based, Leishmania donovani; conditions: Gly2-treated promastigotes, 72 h
Method: The redox homeostasis of promastigotes was monitored both qualitatively and quantitively by 2',7'-dichlorodihydrofluorescein diacetate (DCFDA) (Life Technologies, USA) staining. The untreated and […]-treated promastigotes (1 × 10^6 cells/ml) were cultured for 72 h. Following incubation, the parasites were harvested, washed with PBS, and stained with H2DCFDA (20 μM) for 20 min at 37°C. Excess stain was removed by washing with PBS, and samples were resuspended in PBS (50 μl) followed by imaging. Fluorescence intensity was determined using an excitation filter at 485 nm and an emission filter at 535 nm using confocal microscope (Nikon Ti eclipse, USA). The samples were also analyzed through BD FACS diva ([Shivappagowdar et al., 2019]).

[2] = test system: L. donovani intracellular amastigotes in J774.A1 macrophages; test: Intramacrophage amastigote assay (Giemsa staining, J774.A1); type: cell-based, Leishmania donovani; conditions: treated at IC50 concentration, 24 h; untreated control ~5
Method: For evaluating the efficacy of compounds against intramacrophage amastigotes, Giemsa staining (Sigma-Aldrich) was performed. J774.A1 murine macrophage cells were plated at a cell density of 5 × 10^5 cell/well in a 6-well flat bottom plate. The cells were infected with late-stage L. donovani, rich in promastigotes at a ratio of 10:1. After 6 h, uninfected promastigotes were washed off with PBS.

[3] = test system: L. donovani promastigotes (AG83 strain); test: LDH cytotoxicity assay on promastigotes, AG83 strain; type: cell-based, Leishmania donovani; conditions: Leishmania donovani; Table 1; activity against promastigotes
Method: Promastigote forms of L. donovani (MHOM/IN/1983/AG83) were cultured at 26°C in M199 (GIBCO, India), pH 7.4, supplemented with 10% (v/v) inactivated fetal bovine serum (FBS, GIBCO, India) and 0.02 mg/ml gentamycin (Life Technologies, USA). The clinical isolate of PKDL, BS12, was obtained as a gift from Prof. Mitali Chatterjee [Department of Pharmacology, Institute of Postgraduate Medical Education and Research (IPGMER), Kolkata, India]. BS12 was routinely cultured at 22°C in M199 (GIBCO, India) with 100 U/ml penicillin-streptomycin (Gibco, Invitrogen, Thermo Fisher Scientific, NY, USA), 8 μM hemin (4 mM stock made in 50% triethanolamine) (Sigma, USA), 25 mM 4-(2-hydroxyethyl)-1-piperazineethanesulfonic acid (HEPES), supplemented with 10% heat-inactivated FBS (GIBCO, India). Cultures were maintained between 10^6 and 10^7 cells/ml for continuous exponential growth. In addition, 1 × 10^6 cells/ml parasite count was constantly maintained for all the experiments ([Ramu et al., 2017]).
All the compounds were dissolved in dimethyl sulfoxide (DMSO) (Sigma-Aldrich) for 1 mM stock solution and were screened against promastigotes at a concentration of 5 µM. For Glycosides (Gly) 2, 6, and 8, a range of concentrations starting from 100 nM to 100 µM were screened against promastigote forms of parasite and mammalian cells. Parasites (AG83 and PKDL strain) treated with amphotericin B (3 µg/ml) (Sigma-Aldrich) were maintained as the positive control.
AG83 strain of L. donovani were exposed to various Gly compound concentrations (100 nM–100 µM) in a 96-well microtiter plate (100 µl/well volume) and were incubated for 72 h at 26°C. Finally, lactate dehydrogenase (LDH) cytotoxic assay was performed as per standard protocol (CytoTox 96 Non-Radioactive Cytotoxicity Assay-Promega, USA). The percent cytotoxicity of test compounds was calculated by normalizing with amphotericin B as 100%. Further percentage growth inhibition was calculated using the formula:
% Growth Inhibition = Gly treated LDH activity- Spontaneous LDH activity
/Maximum LDH activity- Spontaneous LDH activity * 100
As per the formula, the spontaneous LDH Activity = activity of the untreated cells and the maximum LDH activity = activity of the amphotericin B-treated cells. IC50 value for Gly2, 6, and 8 treated was generated for AG83 and PKDL strain of L. donovani using sigmoidal dose–response model with nonlinear regression tool ([Ramu et al., 2017]).

MDCK cells = test: MTT cell viability assay on MDCK cells; type: cell-based
Method: The J774.A1 murine macrophage cells were grown in Roswell Park Memorial Institute (RPMI) 1640 medium in the presence of 10% (v/v) FBS and 100 U/ml penicillin−100 µg/ml streptomycin (Gibco, Invitrogen, Thermo Fisher Scientific, NY, USA) at 37°C (humidified) and 5% CO2. […] Madin–Darby canine kidney (MDCK) cells were obtained from the National Centre for Cell Science, Pune, India. MDCK cells were derived from the kidney tissue of an adult female Cocker Spaniel. These were grown in Dulbecco’s modified Eagle’s minimal essential medium (DMEM) in the presence of 10% (v/v) FBS and 100 U/ml penicillin−100 µg/ml streptomycin (Gibco, Invitrogen, Thermo Fisher Scientific, NY, USA) at 37°C (humidified) and 5% CO2 ([Ayana et al., 2018]; [Shivappagowdar et al., 2021]).
All the compounds were dissolved in dimethyl sulfoxide (DMSO) (Sigma-Aldrich) for 1 mM stock solution and were screened against promastigotes at a concentration of 5 µM. […]
To evaluate the cytotoxic effects of 12 compounds on L. donovani promastigotes, LDH assay was performed. This assay involves the reduction of tetrazolium salts to formazan during LDH-mediated catalysis of lactate to pyruvate, which can be detected at 490 nM. […] The selectivity index (SI) for the compound was calculated as the ratio between cytotoxicity (CC50) and activity (IC50) against promastigotes ( Table 1 ).

With CC(C)CCOC1O[C@H](CO)[C@@H](O)[C@H](O)[C@H]1O (stereo partly shown) [Gly2] the “% DCFDA+ parasites” value [1] was ~ 50%, the “number of amastigotes per infected macrophage” value [2] was ~ 1 amastigotes/macrophages and the IC50 [3] was 1130 nM. For the same compound, the “cytotoxicity in MDCK cells” value (MDCK cells) was “minimum level of cytotoxicity”.
